Target: full length Udorn AM2 protein (Influenza A virus, UniProt P0DOF5)
Test: cell-based
Type: cell-based, influenza virus A/Udorn/72
Conditions: for remaining activity at 100 µM: pH 5.5, read-out: AM2 Remaining Activity After 100 μM inhibition; for inhibition of AM2 (in words): 100 μM

Chain of full length Udorn AM2 protein (P0DOF5 whole entry, looked up): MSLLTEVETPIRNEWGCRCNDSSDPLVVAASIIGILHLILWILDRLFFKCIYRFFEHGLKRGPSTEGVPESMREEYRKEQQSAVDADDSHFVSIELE

SMILES	remaining activity at 100 µM	inhibition of AM2 (in words)
C1CCC2(CC1)CCN(C1=NCCN1)CC2 [BL-1743, 3-(4,5-dihydro-1H-imidazol-2-yl)-3-azaspiro[5,5]undecane hydroiodide, reference compound]	25%	
C1CCC2(CC1)CCN(CC1CC1)CC2 [Compound 1, 3-(cyclopropylmethyl)-3-azaspiro[5,5]undecane]	100%	
C1CCC2(CC1)CCN(CC1CCCC1)CC2 [Compound 2, 3-(cyclopentylmethyl)-3-azaspiro[5,5]undecane]	100%	
c1cc(CN2CCC3(CCCCC3)CC2)cs1 [Compound 3, 3-(thiophen-3-ylmethyl)-3-azaspiro[5,5]undecane]	90%	
Cn1cc(CN2CCC3(CCCCC3)CC2)cn1 [Compound 4, 3-((1-methyl-1H-pyrazol-4-yl)methyl)-3-azaspiro[5,5]undecane]	100%	
Cc1cc(CN2CCC3(CCCCC3)CC2)no1 [Compound 5, 3-(3-azaspiro[5,5]undecan-3-ylmethyl)-5-methylisoxazole]	100%	
c1ccc(CN2CCC3(CCCCC3)CC2)nc1 [Compound 6, 3-(pyridin-2-ylmethyl)-3-azaspiro[5,5]undecane]	100%	
c1ncc(CN2CCC3(CCCCC3)CC2)[nH]1 [Compound 7, 3-((1H-imidazol-4-yl)methyl)-3-azaspiro[5.5]undecane]	70%	moderate inhibition
c1c[nH]c(CN2CCC3(CCCCC3)CC2)n1 [Compound 8, 3-((1H-imidazol-2-yl)methyl)-3-azaspiro[5.5]undecane]	49%	moderate inhibition
CC1(C)CCNCC1 [Compound 19, 4,4-dimethylpiperidinium chloride]	75%	
CCC1(C)CCNCC1 [Compound 20, 4-ethyl-4-methylpiperidinium chloride]	87%	
